What is called viability is the share of living cells, or the viability signal relative to a control. Read a high viability as better survival.

This is an account of results in patent US20150335565A1, “IRRITATION MITIGATING POLYMERS AND USES THEREFOR” (LUBRIZOL ADVANCED MATERIALS, INC., priority 2012, published 2015).

Where two headings read alike, the source gives them in different places.

Data set [1] in a line: MTT tissue viability assay (ET-50 protocol) for skin irritancy. The conditions noted are these: human. How it is done:
(§1) Mitigation of skin irritancy induced by sodium dodecyl sulfate (SDS) surfactant dosed with the polymer of Example 56 is assessed in the Epiderm™ Human Tissue Model (EPI-200) bioassay conducted by MatTek Corporation, Ashland, Mass. The MatTek bioassay utilizes human derived epidermal keratinocytes (NHEK) which have been cultured to form a multilayered, highly differentiated model of the human epidermis.
(§2) The MTT tissue viability assay measures the NAD(P)H dependent microsomal enzyme reduction of MTT (and to a lesser extent, the succinate dehydrogenase reduction of MTT) after exposure to a treated skin culture test sample for various exposure times. The duration of exposure resulting in a 50% decrease in MTT conversion in test formulation treated EpiDerm™ cultures, relative to control cultures, is determined (ET-50).
(§3) A SDS surfactant/polymer test formulation is formulated from the components set forth in Table 10 and evaluated for irritancy potential using the MTT viability assay. Test samples containing neat SDS surfactant (no polymer) are formulated for comparative purposes.
(§4) Skin tissue culture inserts (Cat. No. EPI-200) are pre-incubated in the wells of 6-well plates containing 0.9 ml of MatTek assay medium (Cat. No. EPI-100-ASY) for 1 hr. at 37° C. in a humidified atmosphere of 5% CO2 in air. The 6-well plates containing the tissue culture inserts are removed from the incubator and the assay media is aspirated from the wells and replaced by an additional aliquot of 0.9 ml of pre-warmed (37° C.) assay media. For each exposure time wells are then dosed (2 repetitions) with 100 μl of the test formulations set forth in Table 10 (3 tissue culture wells are dosed with 100 μl ultra-pure water as a negative control for each of the test candidates). In addition, 100 μl of a positive control formulation (1% Triton X-100 in ultrapure water) is dosed into tissue culture wells (3 repetitions for each exposure time), as well as 3 repetitions of ultrapure water as a negative control. The exposure times of the test formulations, negative control and positive control are set forth below.
(§5) MTT assay plates are prepped by preparing a 24-well plate by adding 300 μl of MTT reagent solution to an appropriate number of wells to accommodate the test. The MTT reagent is utilized at a concentration of 1 mg/ml of MTT diluted in Dulbecco's Modified Eagle Medium (DMEM). The MTT/DMEM solution is centrifuged and decanted to remove any precipitate before use.
(§6) After exposure times of 60 (1 hr.), 120 (2 hrs.) and 210 (3.5 hrs.) minutes to the test solutions, the tissue cultures are removed from the incubator and thoroughly rinsed (2 times) with Dulbecco's phosphate buffered saline (DPBS) to remove the test material. The negative control is exposed for 4 hours and the positive control is exposed for time periods of 4, 6, 8, and 10 hours. Any remaining rinse media is decanted from the top of the tissue cultures. Each tissue culture insert is transferred to an appropriately labeled well of the 24-well plate containing the MTT reagent solution and placed back in the incubator. After 30 minutes reaction with the MTT reagent, the tissue cultures are removed from the incubator. Each tissue culture insert is removed from its well and the bottom is gently blotted with a lab tissue. The inserts are immersed into a labeled 24-well extraction plate containing 2 ml of isopropanol extractant solution. […]

Data set [2] relates to Epiderm™ Human Tissue Model (EPI-200). Described as above. How it is done: as §1, §2, §3, §4, §5, §6

As for `CCCCCCCCCCCCOS(=O)(=O)[O-].[Na+]` [Neat Surfactant, sodium dodecyl sulfate], in data set [1], the viability at 1 hr was determined as 72%, the viability at 2 hr came out at 28% and the viability at 3.5 hr was 19.6%. Moreover, in data set [2] (interpolated between exposure times that bracket 50% viability), the “ET-50 (exposure time which reduces tissue viability to 50%)” value worked out at 1.41 h.

In the case of Triton X-100 [1% Triton X-100], the “ET-50 (exposure time which reduces tissue viability to 50%)” value in data set [2] stood at 5.93 h.
